Converted amounts (≈) assume the structure as drawn. Read-outs that look alike come from different tables or passages of the source.
Assays:
LUM assay counterscreen = type: biochemical; details: LOPAC pilot screen, dose-response
MtbAPSR [1] = biological target: T1, MtbAPSR (Mycobacterium tuberculosis, UniProt P9WIK3); test: biochemical; parameters: species or system M. tuberculosis
[2] = test system: Non replicating WT Mtb H37Rv; test: Bactericidal activity against nonreplicating; type: cell-based; details: Mycobacterium tuberculosis
MtbAPSR [3] = biological target: T1, MtbAPSR; test: biochemical; type: binding, M. tuberculosis
[4] = test system: Non replicating Msm mc2:155 ΔcysH; type: cell-based, Mycobacterium smegmatis; details: 2 mM methionine; Alamar Blue assay
VERO cells = test: Cytotoxicity in VERO cells; type: cell-based
[5] = HRP-PR H2O2 detection counterscreen for redox-cycling compounds; type: biochemical; details: 0.8 mM DTT
RecA = details: qRT-PCR, normalized to housekeeping gene SigA

T1 sequence (P9WIK3 whole entry): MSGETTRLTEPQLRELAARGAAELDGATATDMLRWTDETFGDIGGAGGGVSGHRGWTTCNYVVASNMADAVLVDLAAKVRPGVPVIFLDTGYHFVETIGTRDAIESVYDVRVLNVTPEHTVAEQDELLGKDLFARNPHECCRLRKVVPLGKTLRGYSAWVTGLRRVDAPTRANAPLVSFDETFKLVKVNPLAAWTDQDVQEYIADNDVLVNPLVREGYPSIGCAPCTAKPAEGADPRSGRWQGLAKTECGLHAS

CSc1nc(N)c2ncn([C@@H]3O[C@H](COP(=O)(O)OP(=O)(O)O)[C@@H](O)[C@H]3O)c2n1.[Na].[Na].[Na] [2-Thiomethyladenoside diphosphate trisodium, reference compound]
activity in LUM counterscreen (LUM assay counterscreen): active
activity in LUM assay (MtbAPSR [1]): active

Cc1c2ccncc2c(C)c2c1[nH]c1ccccc12 [Compound 5, ellipticine]
MBC ([2]; read-out: Non replicating WT Mtb H37Rv, (+) Met): 12.5 µM (≈ 3.08 µg/mL)
MBC ([2]; read-out: Non replicating WT Mtb H37Rv, (−) Met): 12.5 µM (≈ 3.08 µg/mL)
Kd (MtbAPSR [3]): 12 µM
Non replicating Msm mc2:155; MBC, ΔcysH [4]: >100 µM
lethal concentration (LC90) in VERO cells (VERO cells): 63 µM
cytotoxicity fold lower compared to bactericidal activity against nonreplicating Mtb (VERO cells; VERO LC90 vs MBC): ~ 5 fold
activity in LUM counterscreen (LUM assay counterscreen): inactive
IC50 (MtbAPSR [1]; LUM Assay, IC50, dose-response LUM assay, Table 1): 4.2 µM
IC50 (MtbAPSR [1]; apparent IC50 in LUM assay, LOPAC pilot screen hit, dose-response, 384-well): 11.1 µM

O=C1C(SCCO)=C(SCCO)C(=O)c2ccccc21 [NSC 95397]
generation of H2O2 in HRP-PR assay [5]: showed generation of H2O2

CO[C@@]12[C@H](COC(N)=O)C3=C(C(=O)C(C)=C(N)C3=O)N1C[C@@H]1N[C@@H]12 [mitomycin C]
upregulation of RecA (RecA): significant upregulation

Cl.N[C@@H](CCl)C(=O)O [β-Chloro-L-alanine hydrochloride, reference compound]
activity in LUM counterscreen (LUM assay counterscreen): no activity
activity in LUM assay (MtbAPSR [1]; LOPAC pilot screen, dose-response): no activity

— publication PMC4729198 (ACS chemical biology, 2015)
